Reference: patent US20260158056A1, “USE OF LOW MOLECULAR WEIGHT HYALURONIC ACID FOR THE TREATMENT OF LUNG MUCOSAL INFLAMMATION” (INSTITUT NATIONAL DE LA SANTÉ ET DE LA RECHERCHE MÉDICALE, priority 2021, published 2026)

What was measured:
Type in all cases: cell-based
[1] = test system: IL-8 secreted by non-CF human airway epithelial cells; test: IL-8 ELISA, non-CF airway epithelial cell monolayers, Cytomix 24 h then Cytomix + treatment 24 h (curative); conditions: FIG. 12, 15; curative: Cytomix 24 h, then Cytomix + HA 1 mg/mL or Dexa 10^-6M 24 h; n=8 non-CF patients
Protocol: FIG. 12: Measurement by ELISA assay of the pro-inflammatory chemokine IL-8 secreted non-CF human airway epithelial cells cultured as monolayers. Airway epithelial cells were seeded in 48-wells plates and cultured until confluence was reached. Cells were then treated for 24 h with a pro-inflammatory chemokine cocktail (TNFα, IL1β and IFNγ 10 ng/ml each) called Cytomix (Cy). Cells were thereafter treated with a combo containing Cytomix and the anti-inflammatory dexamethasone (Dexa; 10^-6M), 15-45 kDa sodium-hyaluronic acid (HA-Na 15-45 kDa) (ARD—Pomacle—France—as prepared according to WO2004050187), 15-30 kDa sodium-hyaluronic acid (HA-Na 15-30 kDa) (Sigma Aldrich), or 30-50 kDa sodium-hyaluronic acid (HA-Na 30-50 kDa) (Sigma Aldrich) at 1 mg/mL during the following 24 h. The culture medium was finally collected and the IL-8 content was determined by ELISA assay. n=8 different non-CF patients. p<0.001 (***); p<0.01 (**); p<0.05 (*). ns: non-significant.
(§1) FIG. 15: Measurement by ELISA assay of the pro-inflammatory chemokine IL-8 secreted by non-CF human airway epithelial cells cultured as monolayers. Airway epithelial cells were seeded in 48-wells plates and cultured until confluence was reached. Cells were then treated for 24 h with a pro-inflammatory chemokine cocktail (TNFα, IL1β and IFNγ 10 ng/ml each) called Cytomix (Cy). Cells were thereafter treated with a combo containing Cytomix and the anti-inflammatory dexamethasone (Dexa; 10^-6M), 15-45 kDa sodium-hyaluronic acid (HA-Na 15-45 kDa) (ARD—Pomacle—France—as prepared according to WO2004050187), 15-45 kDa calcium-hyaluronic acid (HA-Ca 15-45 kDa; ARD), or 15-45 kDa potassium hyaluronic acid (HA-K 15-45 kDa; ARD) at 1 mg/mL during the following 24 h. The culture medium was finally collected and the IL-8 content was determined. n=8 different non-CF patients. p<0.001 (***); p<0.01 (**); p<0.05 (*). ns: non-significant.

[2] = test system: IL-8 secreted by F508del/F508del CF human airway epithelial cells; test: IL-8 ELISA, CF airway epithelial cell monolayers, Cytomix + treatment 24 h (co-treatment); conditions: FIG. 3, 6; co-treatment: Cytomix + HA 1 mg/mL or Dexa 10^-6M 24 h; n=7 CF patients
Protocol: FIG. 3: Measurement by ELISA assay of the pro-inflammatory chemokine IL-8 secreted by F508del/F508del CF human airway epithelial cells cultured as monolayers. Airway epithelial cells were seeded in 48-wells plates and cultured until confluence was reached. Cells were then treated for 24 h with a combo containing a pro-inflammatory chemokine cocktail (TNFα, IL1β and IFNγ; 10 ng/mL each) called Cytomix (Cy) and the anti-inflammatory dexamethasone (Dexa; 10^-6M), 15-45 kDa sodium-hyaluronic acid (HA-Na 15-45 kDa) (ARD—Pomacle—France—as prepared according to WO2004050187), 15-30 kDa sodium-hyaluronic acid (HA-Na 15-30 kDa) (Sigma Aldrich), or 30-50 kDa sodium-hyaluronic acid (HA-Na 30-50 kDa) (Sigma Aldrich) at 1 mg/mL. The culture medium was then collected and the IL-8 content was determined. n=7 F508del/F508del CF patient. p<0.001 (***); p<0.01 (**); p<0.05 (*). ns: non-significant.
FIG. 6: Measurement by ELISA assay of the pro-inflammatory chemokine IL-8 secreted by F508del/F508del CF human airway epithelial cells cultured as monolayers. Airway epithelial cells were seeded in 48-wells plates and cultured until confluence was reached. Cells were then treated for 24 h with a combo containing a pro-inflammatory chemokine cocktail (TNFα, IL1β and IFNγ 10 ng/mL each) called Cytomix (Cy) and the anti-inflammatory dexamethasone (Dexa; 10^-6M), or 15-45 kDa sodium-hyaluronic acid (HA-Na 15-45 kDa) (ARD—Pomacle—France—as prepared according to WO2004050187), 15-45 kDa calcium-hyaluronic acid (HA-Ca 15-45 kDa; ARD), or 15-45 kDa potassium-hyaluronic acid (HA-K 15-45 kDa; ARD) at 1 mg/mL. The culture medium was then collected and the IL-8 content was determined. n=7 different F508del/F508del CF patients. p<0.001 (***); p<0.01 (**); p<0.05 (*). ns: non-significant.

[3] = test system: IL-8 secreted by non-CF human airway epithelial cells; test: IL-8 ELISA, non-CF airway epithelial cell monolayers, Cytomix + treatment 24 h (co-treatment); conditions: FIG. 13, 16; co-treatment: Cytomix + HA 1 mg/mL or Dexa 10^-6M 24 h; n=8 non-CF patients
Protocol: FIG. 13: Measurement by ELISA assay of the pro-inflammatory chemokine IL-8 secreted by non-CF human airway epithelial cells cultured as monolayers. Airway epithelial cells were seeded in 48-wells plates and cultured until confluence was reached. Cells were then treated for 24 h with a combo containing a pro-inflammatory chemokine cocktail (TNFα, IL1β and IFNγ 10 ng/ml each) called Cytomix (Cy) and the anti-inflammatory dexamethasone (Dexa; 10^-6M), 15-45 kDa sodium-hyaluronic acid (HA-Na 15-45 kDa) (ARD—Pomacle—France—as prepared according to WO2004050187), 15-30 kDa sodium-hyaluronic acid (HA-Na 15-30 kDa) (Sigma Aldrich), or 30-50 kDa sodium-hyaluronic acid (HA-Na 30-50 kDa) (Sigma Aldrich) at 1 mg/mL. The culture medium was then collected and the IL-8 content was determined. n=8 different non-CF patients. p<0.001 (***); p<0.01 (**); p<0.05 (*). ns: non-significant.
as §1, with “FIG. 16: Measurement by” for “FIG. 15: Measurement by”, “with a combo containing a pro-inflammatory chemokine” for “with a pro-inflammatory chemokine”, “called Cytomix (Cy) and the” for “called Cytomix (Cy). Cells were thereafter treated with a combo containing Cytomix and the”, “at 1 mg/mL. The culture” for “at 1 mg/mL during the following 24 h. The culture”, “medium was then collected and” for “medium was finally collected and”

Row | Compound | decrease in IL-8 secretion [1] | decrease in IL-8 secretion [2] | decrease in IL-8 secretion [3]
1 | 15-30 kDa sodium-hyaluronic acid [HA-Na 15-30 kDa] | 46.1% | 40.2% | 38.1%
2 | 15-45 kDa calcium-hyaluronic acid [HA-Ca 15-45 kDa] | 6.5% | 11.6% | 8.5%
3 | 15-45 kDa potassium-hyaluronic acid [HA-K 15-45 kDa] | 17.8% | 30% | 22.2%
4 | 15-45 kDa sodium-hyaluronic acid [HA-Na 15-45 kDa] | 39.6% | 33.9% | 41.6%
5 | 30-50 kDa sodium-hyaluronic acid [HA-Na 30-50 kDa] | 34.8% | 30.1% | 32.1%
6 | C[C@@H]1C[C@H]2[C@@H]3CCC4=CC(=O)C=C[C@]4(C)[C@@]3(F)[C@@H](O)C[C@]2(C)[C@@]1(O)C(=O)CO [Dexamethasone, dexamethasone, reference compound] | 21.1% | 21.4% | 33.9%
